PMC8333425, “Discovery of a dual Ras and ARF6 inhibitor from a GPCR endocytosis screen” (Nature Communications, 2021)

Columns and labels:
Experiment in all cases: KINOMEscan kinase binding assay
[1] = target: T1, 384 kinases from the human genome (Homo sapiens, UniProt Q06418); details: kinase TYRO3 (Entrez TYRO3)
T1 construct: purchased Eurofin/DiscoverX
Procedure, shortened: (§1)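 A panel of 384 human kinases was profiled by KINOMEscan binding in the presence of 10 µM compound. Kinase–ligand binding was given as percent of DMSO control, averaged from duplicates in a single run, with an S(10) selectivity score.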

[2] = target: T2, 384 kinases from the human genome (Homo sapiens, UniProt P16591); details: kinase FER (Entrez FER)
T2 construct: purchased Eurofin/DiscoverX
Procedure, shortened: as §1

[3] = target: T3, 384 kinases from the human genome (Homo sapiens, UniProt Q9Y3S1); details: kinase WNK2 (Entrez WNK2)
T3 construct: purchased Eurofin/DiscoverX
Procedure, shortened: as §1

[4] = target: T4, 384 kinases from the human genome (Homo sapiens, UniProt P21860); details: kinase ERBB3 (Entrez ERBB3)
T4 construct: purchased Eurofin/DiscoverX
Procedure, shortened: as §1

[5] = target: T5, 384 kinases from the human genome (Homo sapiens, UniProt P07333)
T5 construct: purchased Eurofin/DiscoverX
T5 sequence (P07333 20-972): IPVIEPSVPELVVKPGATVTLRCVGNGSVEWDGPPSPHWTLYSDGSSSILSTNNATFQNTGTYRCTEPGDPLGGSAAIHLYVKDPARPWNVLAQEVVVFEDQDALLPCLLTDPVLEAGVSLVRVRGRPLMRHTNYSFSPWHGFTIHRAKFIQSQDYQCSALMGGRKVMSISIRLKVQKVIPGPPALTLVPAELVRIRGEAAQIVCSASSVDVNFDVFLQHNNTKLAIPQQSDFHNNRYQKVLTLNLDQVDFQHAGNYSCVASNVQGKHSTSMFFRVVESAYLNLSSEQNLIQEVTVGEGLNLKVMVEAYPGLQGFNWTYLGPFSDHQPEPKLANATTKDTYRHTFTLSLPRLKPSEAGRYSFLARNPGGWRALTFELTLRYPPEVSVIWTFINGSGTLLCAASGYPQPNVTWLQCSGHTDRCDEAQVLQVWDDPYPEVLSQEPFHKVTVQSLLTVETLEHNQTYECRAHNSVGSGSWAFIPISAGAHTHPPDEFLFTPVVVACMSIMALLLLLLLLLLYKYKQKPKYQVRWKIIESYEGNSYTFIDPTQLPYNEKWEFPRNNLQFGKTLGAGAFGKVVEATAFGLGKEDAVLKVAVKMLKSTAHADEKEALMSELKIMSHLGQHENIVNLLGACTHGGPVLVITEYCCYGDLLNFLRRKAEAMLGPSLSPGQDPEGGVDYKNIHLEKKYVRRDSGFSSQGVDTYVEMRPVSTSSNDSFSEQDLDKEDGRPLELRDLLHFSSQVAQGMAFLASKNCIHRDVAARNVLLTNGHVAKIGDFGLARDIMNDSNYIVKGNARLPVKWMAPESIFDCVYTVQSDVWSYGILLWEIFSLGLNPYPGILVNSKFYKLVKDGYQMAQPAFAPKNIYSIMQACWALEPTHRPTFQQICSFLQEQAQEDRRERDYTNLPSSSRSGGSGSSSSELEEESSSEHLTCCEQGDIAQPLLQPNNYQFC
Procedure, shortened: as §1

[6] = target: T6, 384 kinases from the human genome (Homo sapiens, UniProt P51956); details: kinase NEK3 (Entrez NEK3)
T6 construct: purchased Eurofin/DiscoverX
Procedure, shortened: as §1

[7] = target: T7, 384 kinases from the human genome (Homo sapiens, UniProt Q8NEV4); details: kinase MYO3A (Entrez MYO3A)
T7 construct: purchased Eurofin/DiscoverX
Procedure, shortened: as §1

[8] = target: T8, 384 kinases from the human genome (Homo sapiens, UniProt Q9H422); details: kinase HIPK3 (Entrez HIPK3)
T8 construct: purchased Eurofin/DiscoverX
Procedure, shortened: as §1

[9] = target: T9, 384 kinases from the human genome (Homo sapiens, UniProt Q9UBF8); details: kinase PIK4CB (Entrez PI4KB)
T9 construct: purchased Eurofin/DiscoverX
Procedure, shortened: as §1

[10] = target: T10, 384 kinases from the human genome (Homo sapiens, UniProt Q9UKE5); details: kinase TNIK (Entrez TNIK)
T10 construct: purchased Eurofin/DiscoverX
T10 sequence (Q9UKE5 whole entry): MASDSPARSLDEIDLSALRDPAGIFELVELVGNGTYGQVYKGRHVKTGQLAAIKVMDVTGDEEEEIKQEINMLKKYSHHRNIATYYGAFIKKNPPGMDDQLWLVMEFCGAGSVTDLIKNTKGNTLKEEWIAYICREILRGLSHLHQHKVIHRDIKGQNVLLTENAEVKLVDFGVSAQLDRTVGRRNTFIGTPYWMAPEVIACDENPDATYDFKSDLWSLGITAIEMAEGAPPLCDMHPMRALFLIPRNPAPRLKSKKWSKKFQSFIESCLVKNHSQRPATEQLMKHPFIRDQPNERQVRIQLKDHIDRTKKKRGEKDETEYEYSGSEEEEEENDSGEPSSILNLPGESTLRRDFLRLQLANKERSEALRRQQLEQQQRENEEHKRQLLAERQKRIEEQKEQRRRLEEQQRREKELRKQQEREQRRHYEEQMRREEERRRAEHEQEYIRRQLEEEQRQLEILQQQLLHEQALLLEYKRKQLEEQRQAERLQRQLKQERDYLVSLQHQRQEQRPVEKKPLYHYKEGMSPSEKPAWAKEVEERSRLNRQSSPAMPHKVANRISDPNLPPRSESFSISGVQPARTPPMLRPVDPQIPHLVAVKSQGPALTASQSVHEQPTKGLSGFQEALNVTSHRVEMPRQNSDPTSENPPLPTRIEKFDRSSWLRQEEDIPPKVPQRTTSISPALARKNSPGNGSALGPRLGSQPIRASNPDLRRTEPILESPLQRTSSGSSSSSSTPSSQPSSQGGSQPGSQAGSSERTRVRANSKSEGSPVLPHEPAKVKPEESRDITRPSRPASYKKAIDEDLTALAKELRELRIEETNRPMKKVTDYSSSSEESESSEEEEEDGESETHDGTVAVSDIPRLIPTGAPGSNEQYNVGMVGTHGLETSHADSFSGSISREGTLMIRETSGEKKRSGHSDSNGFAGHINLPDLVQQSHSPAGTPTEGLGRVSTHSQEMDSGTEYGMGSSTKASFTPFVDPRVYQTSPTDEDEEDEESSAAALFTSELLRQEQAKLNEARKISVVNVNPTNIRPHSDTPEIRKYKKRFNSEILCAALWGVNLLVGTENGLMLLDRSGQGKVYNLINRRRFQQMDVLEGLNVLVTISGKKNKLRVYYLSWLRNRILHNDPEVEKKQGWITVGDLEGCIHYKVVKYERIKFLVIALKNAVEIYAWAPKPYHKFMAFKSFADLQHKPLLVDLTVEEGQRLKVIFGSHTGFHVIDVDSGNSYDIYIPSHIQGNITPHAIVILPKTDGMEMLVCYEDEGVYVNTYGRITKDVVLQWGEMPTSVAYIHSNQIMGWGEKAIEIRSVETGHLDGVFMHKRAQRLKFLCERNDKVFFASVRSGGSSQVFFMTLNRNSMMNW
Procedure, shortened: as §1

[11] = target: T11, 384 kinases from the human genome (Homo sapiens, UniProt P49674); details: kinase CSNK1E (Entrez CSNK1E)
T11 construct: purchased Eurofin/DiscoverX
Procedure, shortened: as §1

[12] = target: T12, 384 kinases from the human genome (Homo sapiens, UniProt Q9NRM7); details: kinase LATS2 (Entrez LATS2)
T12 construct: purchased Eurofin/DiscoverX
Procedure, shortened: as §1

[13] = target: T13, 384 kinases from the human genome (Homo sapiens, UniProt P08631); details: kinase HCK (Entrez HCK)
T13 construct: purchased Eurofin/DiscoverX
Procedure, shortened: as §1

[14] = target: T14, 384 kinases from the human genome (Homo sapiens, UniProt P54753); details: kinase EPHB3 (Entrez EPHB3)
T14 construct: purchased Eurofin/DiscoverX
Procedure, shortened: as §1

[15] = target: T15, 384 kinases from the human genome (Homo sapiens, UniProt Q9HC98); details: kinase NEK6 (Entrez NEK6)
T15 construct: purchased Eurofin/DiscoverX
Procedure, shortened: as §1

[16] = target: T16, 384 kinases from the human genome (Homo sapiens, UniProt Q99759); details: kinase MAP3K3 (Entrez MAP3K3)
T16 construct: purchased Eurofin/DiscoverX
Procedure, shortened: as §1

[17] = target: T17, 384 kinases from the human genome (Homo sapiens, UniProt Q9BYT3); details: kinase STK33 (Entrez STK33)
T17 construct: purchased Eurofin/DiscoverX
Procedure, shortened: as §1

[18] = target: T18, 384 kinases from the human genome (Homo sapiens, UniProt P07947); details: kinase YES (Entrez YES1)
T18 construct: purchased Eurofin/DiscoverX
Procedure, shortened: as §1

[19] = target: T19, 384 kinases from the human genome (Homo sapiens, UniProt Q05397); details: kinase FAK (Entrez PTK2)
T19 construct: purchased Eurofin/DiscoverX
Procedure, shortened: as §1

[20] = target: T20, 384 kinases from the human genome (Homo sapiens, UniProt Q99683); details: kinase ASK1 (Entrez MAP3K5)
T20 construct: purchased Eurofin/DiscoverX
Procedure, shortened: as §1

[21] = target: T21, 384 kinases from the human genome (Homo sapiens, UniProt Q08881); details: kinase ITK (Entrez ITK)
T21 construct: purchased Eurofin/DiscoverX
T21 sequence (Q08881 whole entry): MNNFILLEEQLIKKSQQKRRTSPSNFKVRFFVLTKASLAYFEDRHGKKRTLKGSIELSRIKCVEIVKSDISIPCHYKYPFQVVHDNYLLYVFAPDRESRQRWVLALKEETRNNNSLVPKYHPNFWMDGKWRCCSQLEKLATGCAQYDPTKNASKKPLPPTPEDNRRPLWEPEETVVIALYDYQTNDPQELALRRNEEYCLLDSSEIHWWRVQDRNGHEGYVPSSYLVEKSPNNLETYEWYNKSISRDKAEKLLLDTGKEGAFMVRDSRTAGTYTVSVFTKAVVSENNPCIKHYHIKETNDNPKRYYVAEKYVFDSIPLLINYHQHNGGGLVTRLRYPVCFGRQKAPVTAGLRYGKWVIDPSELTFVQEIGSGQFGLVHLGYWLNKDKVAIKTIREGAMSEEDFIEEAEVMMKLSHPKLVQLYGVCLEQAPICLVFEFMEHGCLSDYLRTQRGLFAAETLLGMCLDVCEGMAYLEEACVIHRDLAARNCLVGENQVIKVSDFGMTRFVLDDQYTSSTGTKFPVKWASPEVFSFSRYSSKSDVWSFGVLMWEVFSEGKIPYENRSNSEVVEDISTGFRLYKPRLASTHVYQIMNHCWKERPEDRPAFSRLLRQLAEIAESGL
Procedure, shortened: as §1

[22] = target: T22, 384 kinases from the human genome (Homo sapiens, UniProt Q16620); details: kinase TRKB (Entrez NTRK2)
T22 construct: purchased Eurofin/DiscoverX
Procedure, shortened: as §1

[23] = target: T23, 384 kinases from the human genome (Homo sapiens, UniProt P53350); details: kinase PLK1 (Entrez PLK1)
T23 construct: purchased Eurofin/DiscoverX
Procedure, shortened: as §1

[24] = target: T24, 384 kinases from the human genome (Homo sapiens, UniProt P29320); details: kinase EPHA3 (Entrez EPHA3)
T24 construct: purchased Eurofin/DiscoverX
Procedure, shortened: as §1

[25] = target: T25, 384 kinases from the human genome (Homo sapiens, UniProt O14976); details: kinase GAK (Entrez GAK)
T25 construct: purchased Eurofin/DiscoverX
T25 sequence (O14976 whole entry): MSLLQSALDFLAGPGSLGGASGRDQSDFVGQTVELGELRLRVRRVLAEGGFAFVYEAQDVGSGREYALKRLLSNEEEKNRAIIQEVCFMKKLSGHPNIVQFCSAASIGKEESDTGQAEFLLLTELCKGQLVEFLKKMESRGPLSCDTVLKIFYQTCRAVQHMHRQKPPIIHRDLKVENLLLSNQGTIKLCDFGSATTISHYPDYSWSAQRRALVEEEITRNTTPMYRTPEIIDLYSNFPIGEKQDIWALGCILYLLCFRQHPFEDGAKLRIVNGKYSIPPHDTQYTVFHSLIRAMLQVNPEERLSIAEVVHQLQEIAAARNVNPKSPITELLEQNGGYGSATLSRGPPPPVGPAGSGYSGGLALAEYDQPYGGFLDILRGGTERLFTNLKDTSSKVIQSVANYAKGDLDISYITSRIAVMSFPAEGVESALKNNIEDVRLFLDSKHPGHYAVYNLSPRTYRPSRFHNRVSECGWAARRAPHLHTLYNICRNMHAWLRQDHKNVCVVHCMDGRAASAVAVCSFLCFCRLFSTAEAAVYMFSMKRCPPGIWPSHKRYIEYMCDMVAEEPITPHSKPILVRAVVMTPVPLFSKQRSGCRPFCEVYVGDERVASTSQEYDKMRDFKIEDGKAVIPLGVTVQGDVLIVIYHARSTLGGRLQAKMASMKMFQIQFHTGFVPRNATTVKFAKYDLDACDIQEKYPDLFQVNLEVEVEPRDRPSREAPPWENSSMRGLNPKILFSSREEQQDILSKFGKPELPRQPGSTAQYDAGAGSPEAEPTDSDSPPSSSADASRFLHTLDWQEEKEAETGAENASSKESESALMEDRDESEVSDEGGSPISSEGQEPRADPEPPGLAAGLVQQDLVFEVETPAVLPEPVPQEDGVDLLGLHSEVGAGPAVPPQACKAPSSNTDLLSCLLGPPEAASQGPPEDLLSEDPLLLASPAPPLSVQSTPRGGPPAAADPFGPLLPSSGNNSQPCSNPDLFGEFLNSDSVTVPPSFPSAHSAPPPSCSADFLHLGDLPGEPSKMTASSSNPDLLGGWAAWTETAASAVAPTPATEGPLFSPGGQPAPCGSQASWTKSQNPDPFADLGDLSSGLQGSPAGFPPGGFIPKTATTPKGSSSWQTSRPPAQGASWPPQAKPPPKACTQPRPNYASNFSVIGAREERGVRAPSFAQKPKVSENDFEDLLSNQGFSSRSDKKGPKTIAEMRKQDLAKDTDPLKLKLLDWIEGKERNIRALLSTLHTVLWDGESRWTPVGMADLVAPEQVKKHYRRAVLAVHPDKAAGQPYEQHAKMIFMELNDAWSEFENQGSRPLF
Procedure, shortened: as §1

[26] = target: T26, 384 kinases from the human genome (Homo sapiens, UniProt Q9Y6M4); details: kinase CSNK1G3 (Entrez CSNK1G3)
T26 construct: purchased Eurofin/DiscoverX
Procedure, shortened: as §1

T1 sequence (Q06418 41-890): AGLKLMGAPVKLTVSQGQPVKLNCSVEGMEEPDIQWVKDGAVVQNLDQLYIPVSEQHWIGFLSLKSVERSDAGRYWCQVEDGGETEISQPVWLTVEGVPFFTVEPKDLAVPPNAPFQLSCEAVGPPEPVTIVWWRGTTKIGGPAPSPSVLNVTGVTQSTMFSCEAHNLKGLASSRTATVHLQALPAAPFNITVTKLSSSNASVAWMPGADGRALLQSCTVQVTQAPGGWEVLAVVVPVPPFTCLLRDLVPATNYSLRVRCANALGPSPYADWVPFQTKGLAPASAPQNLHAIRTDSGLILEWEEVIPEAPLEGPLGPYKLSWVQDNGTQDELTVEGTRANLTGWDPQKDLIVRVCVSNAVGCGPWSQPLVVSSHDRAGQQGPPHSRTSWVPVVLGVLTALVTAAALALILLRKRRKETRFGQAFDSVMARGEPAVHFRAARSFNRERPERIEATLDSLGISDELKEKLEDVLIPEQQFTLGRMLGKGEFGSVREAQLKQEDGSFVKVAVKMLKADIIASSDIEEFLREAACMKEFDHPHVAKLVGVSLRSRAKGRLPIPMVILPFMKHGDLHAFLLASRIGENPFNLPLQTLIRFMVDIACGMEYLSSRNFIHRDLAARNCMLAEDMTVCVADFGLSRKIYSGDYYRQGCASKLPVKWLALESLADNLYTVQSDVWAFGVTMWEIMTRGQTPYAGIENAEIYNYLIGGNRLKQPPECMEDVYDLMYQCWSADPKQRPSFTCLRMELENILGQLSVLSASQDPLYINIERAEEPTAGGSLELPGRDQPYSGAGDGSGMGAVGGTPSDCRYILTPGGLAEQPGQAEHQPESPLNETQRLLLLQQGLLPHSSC

## CC(C)C(=O)N1CCN(c2ccc(NC(=O)c3cc4ccccc4o3)cc2Cl)CC1 [Compound 21]
[1]
  Percent Control: 58%
[2]
  Percent Control: 90%
[3]
  Percent Control: 100%
[4]
  Percent Control: 83%
[5]; kinase CSF1R (Entrez CSF1R)
  Percent Control: 73%
[5]; kinase CSF1R-autoinhibited (Entrez CSF1R)
  Percent Control: 100%
[6]
  Percent Control: 100%
[7]
  Percent Control: 89%
[8]
  Percent Control: 93%
[9]
  Percent Control: 74%
[10]
  Percent Control: 57%
[11]
  Percent Control: 100%
[12]
  Percent Control: 98%
[13]
  Percent Control: 99%
[14]
  Percent Control: 83%
[15]
  Percent Control: 94%
[16]
  Percent Control: 75%
[17]
  Percent Control: 100%
[18]
  Percent Control: 89%
[19]
  Percent Control: 100%
[20]
  Percent Control: 79%
[21]
  Percent Control: 100%
[22]
  Percent Control: 55%
[23]
  Percent Control: 77%
[24]
  Percent Control: 91%
[25]
  Percent Control: 96%
[26]
  Percent Control: 100%
